Values of other authors, collected in US20050038473A1, “Device and method for the treatment of pilosebaceous disorders” (priority 2003, published 2005).
Like-named read-outs stand apart in the source and are kept apart here.

Legend:
[1] = test system: in-vitro hair follicle cultures; settings: 5-alpha-reductase blocker, versus finasteride
androgen receptors = molecular target: T1, androgen receptors (Homo sapiens, UniProt P10275); settings: compared with testosterone
T1 sequence (P10275 1-920): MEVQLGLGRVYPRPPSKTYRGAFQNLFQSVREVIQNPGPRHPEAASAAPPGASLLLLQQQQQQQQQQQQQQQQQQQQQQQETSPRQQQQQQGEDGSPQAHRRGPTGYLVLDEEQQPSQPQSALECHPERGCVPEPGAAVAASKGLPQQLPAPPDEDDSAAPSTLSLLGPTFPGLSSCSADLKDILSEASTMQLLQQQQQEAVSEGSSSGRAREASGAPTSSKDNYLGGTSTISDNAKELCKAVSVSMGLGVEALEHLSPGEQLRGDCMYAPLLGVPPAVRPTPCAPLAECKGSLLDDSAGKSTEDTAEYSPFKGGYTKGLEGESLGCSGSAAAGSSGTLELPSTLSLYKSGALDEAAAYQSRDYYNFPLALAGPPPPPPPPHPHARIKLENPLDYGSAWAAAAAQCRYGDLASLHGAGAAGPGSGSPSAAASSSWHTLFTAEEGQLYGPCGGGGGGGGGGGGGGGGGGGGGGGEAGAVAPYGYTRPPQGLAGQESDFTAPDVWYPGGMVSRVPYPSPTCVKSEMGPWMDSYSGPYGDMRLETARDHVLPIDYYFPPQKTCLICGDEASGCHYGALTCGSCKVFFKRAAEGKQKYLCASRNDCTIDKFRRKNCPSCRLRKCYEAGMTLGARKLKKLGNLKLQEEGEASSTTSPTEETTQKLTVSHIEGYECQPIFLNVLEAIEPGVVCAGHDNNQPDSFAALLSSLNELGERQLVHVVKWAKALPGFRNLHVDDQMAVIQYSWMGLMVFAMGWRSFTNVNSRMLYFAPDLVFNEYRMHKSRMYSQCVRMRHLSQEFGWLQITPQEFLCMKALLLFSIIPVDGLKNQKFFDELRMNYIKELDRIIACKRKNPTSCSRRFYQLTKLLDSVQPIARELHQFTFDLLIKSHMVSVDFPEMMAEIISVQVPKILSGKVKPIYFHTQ

idiopathic hirsutism = settings: women with idiopathic hirsutism taking flutamide

In the case of C=C1/C(=C\C=C2/CCC[C@]3(C)[C@@H]([C@H](C)CCCC(C)(C)O)CC[C@@H]23)C[C@@H](O)C[C@@H]1O [1,25-dihydroxyvitamin D3], the “effect on hair and hair follicle growth” value (hair follicles; high concentration (100 nM) and after longer contact) is given as “inhibits” and the “effect on hair and hair follicle growth” value (hair follicles; low concentration (1-10 nM), direct contact with hair follicles) is given as “stimulates”.
In the case of CCN(CC)C(=O)[C@H]1CC[C@H]2[C@@H]3CC[C@H]4N(C)C(=O)CC[C@]4(C)[C@H]3CC[C@]12C [17-beta-N,N-diethylcarbamyl-4-methyl-4-aza-5-androstan-3-one], the “effect on in-vitro hair follicle cultures compared with finasteride” value [1] is given as “greater effect”.
In the case of CN1C(=S)N(c2ccc(C#N)c(C(F)(F)F)c2)C(=O)C1(C)C [RU 56187], the “affinity for androgen receptors relative to the affinity of testosterone” value (androgen receptors) is listed as “three times higher”.
For CC1(C)C(=O)N(c2ccc(C#N)c(C(F)(F)F)c2)C(=S)N1CCCCO [RU 59063], the “affinity for androgen receptors relative to the affinity of testosterone” value (androgen receptors) is listed as “three times higher”.
For CC(C)C(=O)Nc1ccc([N+](=O)[O-])c(C(F)(F)F)c1 [flutamide], the “disturbance of plasma levels of gonadotropins, testosterone, androstenedione or dehydroepiandrostenedione” value (idiopathic hirsutism) is listed as “without disturbance”.
